For this data set, the system named is fibroblast L929 cell. Put plainly: Side effect test, toxic reduction of asiatic acid, PrestoBlue assay. The following applies: 12.5 μM asiatic acid dissolved in DMSO in cell culture media. Type of data set: cell-based.

Description: Side effect test of Sample 2 in colloid form at concentration of 0, 0.1, 0.15 and 0.25% w/v form was studied by considering the toxic reduction of asiatic acid in fibroblast L929 cell via PrestoBlue™ assay.

As for `C[C@H]1[C@H](C)CC[C@]2(C(=O)O)CC[C@]3(C)C(=CC[C@@H]4[C@@]5(C)C[C@@H](O)[C@H](O)[C@@](C)(CO)[C@@H]5CC[C@]43C)[C@H]12` [asiatic acid], the Cell viability stood at 5%.

For the origin of these results see patent US20240336748A1, “A METHOD FOR PREPARING HYALURONIC ACID GRAFTED POLY(N-ISOPROPYLACRYLAMIDE) (HA-G-PNI-PAM)” (NABSOLUTE COMPANY LIMITED, priority 2021, published 2024).
